Laboratory results from US9732075B2, “Benzimidazole-proline derivatives” (IDORSIA PHARMACEUTICALS LTD, priority 2012, dated 2017).

Key:
[1] = target: human orexin-1 receptor (Homo sapiens (Human), UniProt O43613); test: In vitro assay: intracellular calcium measurements (FLIPR), antagonistic activity; format: cell-based; details: CHO cells expressing human orexin-1 receptor, orexin-A agonist, geometric mean, read-out: IC50 Ox1
Outline: (§1)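 Read-out: FLIPR fluo-4 calcium peak height in CHO cells bearing human orexin-1 or orexin-2 receptor, relative to orexin-A (approx. EC70) with vehicle. Antagonist preincubation 120 min; agonist orexin-A at 3 nM final. IC50 possibly normalized to an on-plate reference compound.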

[2] = target: human orexin-2 receptor (Homo sapiens (Human), UniProt O43614); test: as above; format: cell-based; details: CHO cells expressing human orexin-2 receptor, orexin-A agonist, geometric mean, read-out: IC50 Ox2
Outline: as §1

human orexin-2 receptor, sequence (O43614 whole entry): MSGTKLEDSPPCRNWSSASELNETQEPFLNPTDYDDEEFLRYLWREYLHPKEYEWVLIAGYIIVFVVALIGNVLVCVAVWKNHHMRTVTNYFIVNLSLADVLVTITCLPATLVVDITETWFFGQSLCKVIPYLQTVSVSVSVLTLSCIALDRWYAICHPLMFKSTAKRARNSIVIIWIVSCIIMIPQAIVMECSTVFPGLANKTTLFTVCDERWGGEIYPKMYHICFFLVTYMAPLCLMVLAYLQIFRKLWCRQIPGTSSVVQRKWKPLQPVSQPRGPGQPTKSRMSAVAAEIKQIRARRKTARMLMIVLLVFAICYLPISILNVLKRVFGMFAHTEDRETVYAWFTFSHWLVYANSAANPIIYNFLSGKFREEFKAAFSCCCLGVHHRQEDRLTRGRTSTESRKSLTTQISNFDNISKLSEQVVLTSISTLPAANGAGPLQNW
human orexin-1 receptor, sequence (O43613 whole entry): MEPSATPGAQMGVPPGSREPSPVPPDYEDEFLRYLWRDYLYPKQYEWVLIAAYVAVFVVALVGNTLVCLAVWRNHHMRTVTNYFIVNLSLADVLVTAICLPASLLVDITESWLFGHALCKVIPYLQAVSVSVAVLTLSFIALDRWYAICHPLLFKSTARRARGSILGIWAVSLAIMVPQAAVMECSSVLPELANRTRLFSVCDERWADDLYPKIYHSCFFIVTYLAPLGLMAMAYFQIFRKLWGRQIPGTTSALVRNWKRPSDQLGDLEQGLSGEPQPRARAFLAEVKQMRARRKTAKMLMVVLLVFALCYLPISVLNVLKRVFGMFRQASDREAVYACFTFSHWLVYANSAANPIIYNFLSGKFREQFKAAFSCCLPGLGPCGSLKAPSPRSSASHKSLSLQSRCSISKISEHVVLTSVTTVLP

IC50 [1]	IC50 [2]	SMILES
3 nM	1630 nM	Cc1nc(C(=O)N2CC[C@H](C)[C@H]2c2nc3cc(Cl)c(C)cc3[nH]2)c(-c2ccc(Cl)cc2)s1 [Ex. 4.78]
14 nM	1660 nM	Cc1ccc(-c2cccnc2)c(C(=O)N2CC[C@H](C)[C@H]2c2nc3cc(Cl)c(C)cc3[nH]2)c1 [Ex. 4.104]
22 nM	18 nM	Cc1ccc(-c2ccc(F)cc2)c(C(=O)N2CCC[C@@]2(C)c2nc3c(C)c(C)ccc3[nH]2)c1 [Ex. 5.115]
9 nM	1940 nM	Cc1nc(C(=O)N2CC[C@H](C)[C@H]2c2nc3c(F)c(F)ccc3[nH]2)c(-c2cccc(Cl)c2)s1 [Ex. 4.23]
36 nM	6520 nM	Cc1ccc(-c2nc(C(=O)N3CCC[C@@]3(C)c3nc4c(C)c(Cl)ccc4[nH]3)c(-c3ccc(F)cc3)s2)cc1Cl [Ex. 5.258]
2 nM	65 nM	Cc1c(Cl)ccc2[nH]c([C@@H]3[C@@H](C)CCN3C(=O)c3cc(Cl)ccc3-n3nccn3)nc12 [Ex. 4.60]
283 nM	2620 nM	COc1cc2nc([C@@H]3[C@@H](C)CCN3C(=O)c3ccccc3-n3cccn3)[nH]c2cc1OC [Ex. 4.56]
87 nM	12 nM	C=C1C[C@@H](c2nc3cc(OC)ccc3[nH]2)N(C(=O)c2ccccc2-c2cccc(C)c2)C1 [Ex. 6.14]
13 nM	981 nM	Cc1ccc(-n2nccn2)c(C(=O)N2CC[C@H](C)[C@H]2c2nc3c(C)cc(Cl)cc3[nH]2)c1F [Ex. 4.99]
57 nM	2 nM	C=C1C[C@@H](c2nc3cc(C(C)(C)C)ccc3[nH]2)N(C(=O)c2cc(C)ccc2-n2nccn2)C1 [Ex. 6.66]
88 nM	3 nM	C=C1C[C@@H](c2nc3c(C)c(C)ccc3[nH]2)N(C(=O)c2cc(C)ccc2-n2nccn2)C1 [Ex. 6.63]
23 nM	501 nM	Cc1cc2[nH]c([C@@H]3[C@@H](C)CCN3C(=O)c3cc(F)ccc3-c3ncccn3)nc2cc1Cl [Ex. 4.131]
842 nM	64 nM	C=C1C[C@@H](c2nc3cc(C(C)(C)C)ccc3[nH]2)N(C(=O)c2nc(C)ccc2-n2cccn2)C1 [Ex. 6.173]
20 nM	1640 nM	Cc1cc(-c2nc(C(=O)N3CCC[C@@]3(C)c3nc4c(C)c(Cl)ccc4[nH]3)c(-c3ccc(F)cc3)s2)ccc1F [Ex. 5.252]
1 nM	387 nM	Cc1ccc(-c2sc(N(C)C)nc2C(=O)N2CC[C@H](C)[C@H]2c2nc3c(Cl)cccc3[nH]2)cc1C [Ex. 4.128]
4 nM	78 nM	COc1ccc(-n2nccn2)c(C(=O)N2CC[C@H](C)[C@H]2c2nc3cc(Cl)c(C)cc3[nH]2)c1 [Ex. 4.74]
11 nM	1170 nM	Cc1nc(C(=O)N2CC[C@H](C)[C@H]2c2nc3cccc(C)c3[nH]2)c(-c2ccccc2)s1 [Ex. 4.4]
765 nM	4 nM	C=C1C[C@@H](c2nc3ccc(OC)cc3[nH]2)N(C(=O)c2cc(Cl)ccc2-n2nccn2)C1 [Ex. 6.136]
43 nM	11 nM	C=C1C[C@@H](c2nc3cc(C)c(C)cc3[nH]2)N(C(=O)c2c(-n3nccn3)ccc(OC)c2F)C1 [Ex. 6.195]
13 nM	144 nM	Cc1ccc(C(=O)N2CC[C@H](C)[C@H]2c2nc3c(C)c(Cl)ccc3[nH]2)c(-c2ccccn2)c1 [Ex. 4.167]
203 nM	157 nM	COc1cc2nc([C@]3(C)CCCN3C(=O)c3ccccc3-c3cccc(C)c3)[nH]c2cc1OC [Ex. 5.87]
92 nM	97 nM	Cc1cc2nc([C@]3(C)CCCN3C(=O)c3ccccc3-c3ccc(F)cc3)[nH]c2cc1C [Ex. 5.104]
15 nM	0.7 nM	C=C1C[C@@H](c2nc3cccc(C)c3[nH]2)N(C(=O)c2nc(C)sc2-c2cccc(C(F)(F)F)c2)C1 [Ex. 6.112]
13 nM	402 nM	Cc1c(Cl)ccc2[nH]c([C@]3(C)CCCN3C(=O)c3nc(-c4ccccc4Cl)sc3-c3ccc(F)cc3)nc12 [Ex. 5.256]
200 nM	154 nM	COc1cc2nc([C@]3(C)CCCN3C(=O)c3cc(F)ccc3-n3nccn3)[nH]c2cc1OC [Ex. 5.65]
8 nM	58 nM	COc1ccc(-n2nccn2)c(C(=O)N2CC[C@H](C)[C@H]2c2nc3cc(C)c(C)cc3[nH]2)c1 [Ex. 4.84]

The remaining lines, values behind:

SMILES	IC50 [1]	IC50 [2]
Cc1cc(C)c2nc([C@@H]3CCCN3C(=O)c3nc(C)sc3-c3ccccc3)[nH]c2c1 [Ex. 1.142]	24 nM	13 nM
COc1ccc2[nH]c([C@@H]3CCCN3C(=O)c3nc(C)sc3-c3cccc(Cl)c3)nc2c1 [Ex. 1.9]	337 nM	69 nM
Cc1ccc(-n2nccn2)c(C(=O)N2CCC[C@@]2(C)c2nc3cc(F)c(Br)cc3[nH]2)c1 [Ex. 5.23]	15 nM	80 nM
Cc1ccc(-n2nccn2)c(C(=O)N2CCC[C@@]2(C)c2nc3c(C)c(Cl)ccc3[nH]2)n1 [Ex. 5.47]	5 nM	15 nM
CSc1cccc2nc([C@@H]3CCCN3C(=O)c3nc(C)sc3-c3ccc(F)c(F)c3)[nH]c12 [Ex. 1.67]	127 nM	84 nM
COc1ccc2[nH]c([C@@H]3CCCN3C(=O)c3c(-n4nccn4)ccc(C)c3F)nc2c1 [Ex. 1.172]	1160 nM	19 nM
Cc1ccc(-n2nccn2)c(C(=O)N2CCC[C@H]2c2nc3cc(Cl)ccc3[nH]2)c1 [Ex. 1.3]	265 nM	51 nM
Cc1nc(C(=O)N2C[C@@H](F)C[C@H]2c2nc3c(C)c(Cl)ccc3[nH]2)c(-c2ccccc2)s1 [Ex. 2.7]	66 nM	42 nM
CSc1ccc2nc([C@@H]3CCCN3C(=O)c3cnc(C)nc3-c3ccc(C)c(C)c3)[nH]c2c1 [Ex. 1.55]	35 nM	10 nM
Cc1nc(C(=O)N2CCCC2c2nc3cc(C(F)(F)F)c(F)cc3[nH]2)c(-c2cccc(Cl)c2)s1 (stereo not shown) [Ex. 1.111]	32 nM	243 nM
Cc1nc(C(=O)N2C[C@H](F)C[C@H]2c2nc3c(C)cccc3[nH]2)c(-c2cccc(Cl)c2)s1 [Ex. 2.9]	17 nM	18 nM
CO[C@@H]1C[C@@H](c2nc3ccc(Cl)c(C)c3[nH]2)N(C(=O)c2nc(N(C)C)sc2-c2ccc(C)c(C)c2)C1 [Ex. 3.33]	0.8 nM	10 nM
COc1ccc2[nH]c([C@@H]3CCCN3C(=O)c3nc(C)ccc3-n3nccn3)nc2c1 [Ex. 1.173]	3930 nM	54 nM
CCc1ccc(-c2sc(C)nc2C(=O)N2CCC[C@H]2c2nc3ccc(OC)cc3[nH]2)cc1 [Ex. 1.24]	850 nM	81 nM
COc1ccc(-n2nccn2)c(C(=O)N2C[C@H](OC)CC2(C)c2nc3c(C)c(Cl)ccc3[nH]2)c1F (stereo partly shown) [Ex. 3.46]	223 nM	288 nM
CO[C@@H]1C[C@@H](c2nc3c(C)c(Cl)ccc3[nH]2)N(C(=O)c2nc(C)sc2-c2ccccc2)C1 [Ex. 3.6]	5 nM	4 nM
CO[C@H]1CN(C(=O)c2nc(C)ccc2-n2nccn2)C(C)(c2nc3c(C)c(Cl)ccc3[nH]2)C1 (stereo partly shown) [Ex. 3.56]	18 nM	37 nM
Cc1ccc(-n2nccn2)c(C(=O)N2CCC[C@@]2(C)c2nc3c(C)c(C)ccc3[nH]2)c1 [Ex. 5.28]	4 nM	19 nM
